# According to ChEMBL document CHEMBL3885881, “DrugMatrix”:
# Organism: Rattus norvegicus
# Assay: DrugMatrix - Regimen: Daily Repeat
# Type: toxicity, organism-based, Sprague-Dawley
# Set-up: regimen Daily Repeat, gender Male, age 6-8 weeks
# Settings: in vivo, po, route oral GAVAGE, vehicle .5 % CMC; for ABSOLUTE BASOPHIL / ABSOLUTE EOSINOPHIL / ABSOLUTE LYMPHOCYTE / ABSOLUTE MONOCYTE / ABSOLUTE SEGMENTED NEUTROPHIL / BASOPHIL / EOSINOPHIL / ERYTHROCYTE COUNT / HEMATOCRIT / HEMOGLOBIN / LEUKOCYTE COUNT / LYMPHOCYTE / MEAN CORPUSCULAR HEMOGLOBIN / MEAN CORPUSCULAR HEMOGLOBIN CONCENTRATION / MEAN CORPUSCULAR VOLUME / MONOCYTE / NEUTROPHIL / NUCLEATED RED BLOOD CELLS / PLATELET COUNT: tissue Blood; for ALANINE AMINOTRANSFERASE / ALBUMIN / ALKALINE PHOSPHATASE / ASPARTATE AMINOTRANSFERASE / BLOOD UREA NITROGEN / CARBON DIOXIDE / CHLORIDE / CHOLESTEROL / CREATINE PHOSPHOKINASE / CREATININE / GLUCOSE / LACTATE DEHYDROGENASE / LIPASE / PHOSPHORUS / POTASSIUM / SODIUM / TOTAL BILIRUBIN / TOTAL PROTEIN / URIC ACID: tissue Plasma
# [1] = 0 mg/kg, 72 h, dose level Control, time 3 day
# [2] = 0 mg/kg, 120 h, dose level Control, time 5 day
# [3] = 3 mg/kg, 72 h, dose level Low, time 3 day
structure (smiles),measurement,setting,value
O=c1[nH]cc(F)c(=O)[nH]1 [FLUOROURACIL],ABSOLUTE BASOPHIL,[1],0 CELLS/uL
same,ABSOLUTE EOSINOPHIL,[1],130.33 CELLS/uL
same,ABSOLUTE LYMPHOCYTE,[1],10030.67 CELLS/uL
same,ABSOLUTE MONOCYTE,[1],41 CELLS/uL
same,ABSOLUTE SEGMENTED NEUTROPHIL,[1],1298 CELLS/uL
same,BASOPHIL,[1],0%
same,EOSINOPHIL,[1],1%
same,ERYTHROCYTE COUNT,[1],5.22 x10E6/uL
same,HEMATOCRIT,[1],33.53%
same,HEMOGLOBIN,[1],12.73 G/DL
same,LEUKOCYTE COUNT,[1],11.5 x10E3/uL
same,LYMPHOCYTE,[1],87.67%
same,MEAN CORPUSCULAR HEMOGLOBIN,[1],24.45 pg
same,MEAN CORPUSCULAR HEMOGLOBIN CONCENTRATION,[1],37.97 G/DL
same,MEAN CORPUSCULAR VOLUME,[1],64.33 fL
same,MONOCYTE,[1],0.33%
same,NEUTROPHIL,[1],11%
same,NUCLEATED RED BLOOD CELLS,[1],0 /100WBC
same,PLATELET COUNT,[1],1310.5 x10E3/uL
same,ALANINE AMINOTRANSFERASE,[1],52 u/L
same,ALBUMIN,[1],4.22 G/DL
same,ALKALINE PHOSPHATASE,[1],340.17 u/L
same,ASPARTATE AMINOTRANSFERASE,[1],87.5 u/L
same,BLOOD UREA NITROGEN,[1],15.17 mg/dL
same,CARBON DIOXIDE,[1],25.5 mmol/L
same,CHLORIDE,[1],101.83 MEQ/L
same,CHOLESTEROL,[1],68.17 mg/dL
same,CREATINE PHOSPHOKINASE,[1],379.67 u/L
same,CREATININE,[1],0.17 mg/dL
same,GLUCOSE,[1],181.67 mg/dL
same,LACTATE DEHYDROGENASE,[1],256.17 u/L
same,LIPASE,[1],8 u/L
same,PHOSPHORUS,[1],12.1 mg/dL
same,POTASSIUM,[1],5.88 MEQ/L
same,SODIUM,[1],143.67 MEQ/L
same,TOTAL BILIRUBIN,[1],0.18 mg/dL
same,TOTAL PROTEIN,[1],5.92 G/DL
same,URIC ACID,[1],1.7 mg/dL
same,ABSOLUTE BASOPHIL,[2],0 CELLS/uL
same,ABSOLUTE EOSINOPHIL,[2],31 CELLS/uL
same,ABSOLUTE LYMPHOCYTE,[2],9599.17 CELLS/uL
same,ABSOLUTE MONOCYTE,[2],52.83 CELLS/uL
same,ABSOLUTE SEGMENTED NEUTROPHIL,[2],1050.33 CELLS/uL
same,BASOPHIL,[2],0%
same,EOSINOPHIL,[2],0.33%
same,ERYTHROCYTE COUNT,[2],5.53 x10E6/uL
same,HEMATOCRIT,[2],35.8%
same,HEMOGLOBIN,[2],13.53 G/DL
same,LEUKOCYTE COUNT,[2],10.73 x10E3/uL
same,LYMPHOCYTE,[2],89%
same,MEAN CORPUSCULAR HEMOGLOBIN,[2],24.47 pg
same,MEAN CORPUSCULAR HEMOGLOBIN CONCENTRATION,[2],37.82 G/DL
same,MEAN CORPUSCULAR VOLUME,[2],64.7 fL
same,MONOCYTE,[2],0.5%
same,NEUTROPHIL,[2],10.17%
same,NUCLEATED RED BLOOD CELLS,[2],0 /100WBC
same,PLATELET COUNT,[2],1028.5 x10E3/uL
same,ALANINE AMINOTRANSFERASE,[2],45.33 u/L
same,ALBUMIN,[2],4.33 G/DL
same,ALKALINE PHOSPHATASE,[2],351.83 u/L
same,ASPARTATE AMINOTRANSFERASE,[2],73.5 u/L
same,BLOOD UREA NITROGEN,[2],17.83 mg/dL
same,CARBON DIOXIDE,[2],24.67 mmol/L
same,CHLORIDE,[2],100 MEQ/L
same,CHOLESTEROL,[2],67 mg/dL
same,CREATINE PHOSPHOKINASE,[2],284 u/L
same,CREATININE,[2],0.2 mg/dL
same,GLUCOSE,[2],152.33 mg/dL
same,LACTATE DEHYDROGENASE,[2],108.67 u/L
same,LIPASE,[2],8.17 u/L
same,PHOSPHORUS,[2],11.17 mg/dL
same,POTASSIUM,[2],6.14 MEQ/L
same,SODIUM,[2],144.68 MEQ/L
same,TOTAL BILIRUBIN,[2],0.22 mg/dL
same,TOTAL PROTEIN,[2],6.08 G/DL
same,URIC ACID,[2],1.27 mg/dL
same,ABSOLUTE BASOPHIL,[3],0 CELLS/uL
same,ABSOLUTE EOSINOPHIL,[3],34 CELLS/uL
same,ABSOLUTE LYMPHOCYTE,[3],9566.33 CELLS/uL
same,ABSOLUTE MONOCYTE,[3],34 CELLS/uL
same,ABSOLUTE SEGMENTED NEUTROPHIL,[3],1732.33 CELLS/uL
same,BASOPHIL,[3],0%
same,EOSINOPHIL,[3],0.33%
same,ERYTHROCYTE COUNT,[3],5.74 x10E6/uL
same,HEMATOCRIT,[3],36.43%
same,HEMOGLOBIN,[3],13.5 G/DL
same,LEUKOCYTE COUNT,[3],11.37 x10E3/uL
same,LYMPHOCYTE,[3],84%
same,MEAN CORPUSCULAR HEMOGLOBIN,[3],23.57 pg
same,MEAN CORPUSCULAR HEMOGLOBIN CONCENTRATION,[3],37.07 G/DL
same,MEAN CORPUSCULAR VOLUME,[3],63.6 fL
same,MONOCYTE,[3],0.33%
same,NEUTROPHIL,[3],15.33%
same,NUCLEATED RED BLOOD CELLS,[3],0 /100WBC
same,PLATELET COUNT,[3],984 x10E3/uL
same,ALANINE AMINOTRANSFERASE,[3],53.67 u/L
same,ALBUMIN,[3],4.33 G/DL
same,ALKALINE PHOSPHATASE,[3],357 u/L
same,ASPARTATE AMINOTRANSFERASE,[3],102 u/L
same,BLOOD UREA NITROGEN,[3],15 mg/dL
same,CARBON DIOXIDE,[3],26 mmol/L
same,CHLORIDE,[3],100.67 MEQ/L
same,CHOLESTEROL,[3],72.33 mg/dL
same,CREATINE PHOSPHOKINASE,[3],938.33 u/L
same,CREATININE,[3],0.19 mg/dL
same,GLUCOSE,[3],156 mg/dL
same,LACTATE DEHYDROGENASE,[3],212 u/L
same,LIPASE,[3],8.67 u/L
same,PHOSPHORUS,[3],12.53 mg/dL
same,POTASSIUM,[3],6.78 MEQ/L
same,SODIUM,[3],143.77 MEQ/L
same,TOTAL BILIRUBIN,[3],0.23 mg/dL
same,TOTAL PROTEIN,[3],6.07 G/DL
